Laboratory results as given in US20250003900A1, “Micro Magnetic Resonance Relaxometry (MMRR) for Rapid and Non-Invasive Detection of Senescence in Mesenchymal Stem Cells” (Massachusetts Institute of Technology, priority 2021, published 2025).

Tests used:
MSCs [1] = assay: μMRR T2 measurement of MSCs with induced senescence; assay type: cell-based
Text: Cytokines such as Transforming Growth Factor-β1 (TGFβ1) and interleukin-1 (IL-1) induce senescence in MSCs. TGFβ1 is a TGF family member that controls numerous cellular functions, including proliferation and cell death. (Refs. 51 and 52) IL-1 is a proinflammatory cytokine whose expression is associated with SASP. […] The senescent cells are more in TGF-β1 treated cells than IL-1 treated cells (FIG. 8), which is also confirmed here by its decreased T2 values than IL-1 treated cells.
Since MSCs donors show differences in proliferative ability, it is important to find the limit of detection (LOD) of MRR assay in terms of the cell number. […] Here, the LOD was analyzed by decreasing the concentration of cells even lower to 4 ×10^4, 2×10^4, and 1×10^4 cells for uMRR detection as shown in the FIG. 6H and FIG. 8. […] The batches of 1, 2, and 4 (×10^4 cells) in 4 μl detection volume of TGF-β1 treated and untreated MSCs were analyzed by MRR. […]
(§1) Bone marrow-derived mesenchymal stem cells (MSC) were purchased from Lonza Pte. […] The cell number was calculated using a disposable hemocytometer (INCYTO, Korea) with the trypan blue exclusion method. […]
For all MRR experiments, the normalized concentration (3×10^5 cells) of MSCs have used unless otherwise stated. […] Proton transverse relaxation rates T2 were measured by standard Carr-Purcell-Meiboom-Gill (CPMG) pulse programme (Refs. 64 and 65) (FIG. 3B). […]

MSCs [2] = assay: Immunofluorescence of proliferation marker EdU and senescence marker γ-H2AX foci in MSCs; assay type: cell-based; settings: passage 3 MSCs, 1 μM doxorubicin for 24 hours
Method: Proliferation and senescence were measured simultaneously in order to correlate cell state directly with the MRR T2 values. MSCs from the same donor were serially passaged to passage 3, passage 5, and passage 6. As a positive control for senescence cells, cells from passage 3 were also treated with doxorubicin (DOX), a chemotherapy agent that produces DNA damage and reactive oxygen species to induce senescence in tumor cells. To measure DNA synthesis, EdU (5-ethynyl-2′-deoxyuridine) was used as an indicator of active cell proliferation (shown in green). In contrast, senescent cells are known to accumulate γ-H2AX foci (indicated in red). The proliferation (Pf) index and senescence (Sn) index were calculated from these images and plotted respectively (FIG. 6C and FIG. 6D). […]
as §1
For detection of SA-βgal together with another senescence marker (γ-H2AX foci) (Ref. 66) and the proliferation marker, 5-ethynyl-2′-deoxyuridine (Edu) in the cells, the protocol was performed as previously mentioned (Ref. 67). […] Subsequently, Edu labeling was detected following the manufacturer's protocol (Invitrogen). […]

Row | Molecule | T2 values of cytokine treated cells (MSCs [1]; MSCs treated with 10 ng and 20 ng/ml cytokine) | senescent cells in TGF-β1 treated cells versus IL-1 treated cells (MSCs [1]; confirmed by decreased T2 values than IL-1 treated cells) | senescence (Sn) index (γ-H2aX) (MSCs [2]; compared to P3 and P5) | proliferation (Pf) index (MSCs [2]; compared with P3, P5 and P6)
1 | TGFβ1: TGF family member cytokine that induces senescence in MSCs | decreased with increasing cytokine concentrations | more |  | 
2 | COc1cccc2c1C(=O)c1c(O)c3c(c(O)c1C2=O)C[C@@](O)(C(=O)CO)C[C@@H]3O[C@H]1C[C@H](N)[C@H](O)[C@H](C)O1 [DOX, doxorubicin] |  |  | more senescent cells | lowest
